One assay addresses EGFR WT (Homo sapiens, UniProt P00533). As to conditions: wild type EGFR and exon 20 insertion mutants, summary of Table 1.
Assay [1] relates to non-small cell lung cancer with insertion mutation in exon 20. To be noted: cited from earlier work.
For assay [2], the system named is stage IV lung adenocarcinoma carrying Exon 20 ins. To be noted: cited from earlier work.

Sequence of EGFR WT (P00533 668-1210 limits assumed): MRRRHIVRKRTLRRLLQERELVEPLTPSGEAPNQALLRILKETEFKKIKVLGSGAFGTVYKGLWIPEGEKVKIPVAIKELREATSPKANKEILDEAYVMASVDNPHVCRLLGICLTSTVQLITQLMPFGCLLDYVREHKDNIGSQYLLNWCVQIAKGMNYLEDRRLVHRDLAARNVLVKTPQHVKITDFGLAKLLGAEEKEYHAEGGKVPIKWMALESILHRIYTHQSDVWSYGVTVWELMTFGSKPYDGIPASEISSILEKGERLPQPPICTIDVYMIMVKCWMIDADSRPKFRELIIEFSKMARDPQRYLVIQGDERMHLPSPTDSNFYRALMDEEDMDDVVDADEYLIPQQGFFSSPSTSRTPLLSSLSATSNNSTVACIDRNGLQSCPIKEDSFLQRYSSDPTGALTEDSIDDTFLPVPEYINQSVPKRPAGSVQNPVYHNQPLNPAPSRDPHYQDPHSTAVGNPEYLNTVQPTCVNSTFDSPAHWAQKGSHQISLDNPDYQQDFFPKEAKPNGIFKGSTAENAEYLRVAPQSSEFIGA

Take `CCOc1cc2ncc(C#N)c(Nc3ccc(OCc4ccccn4)c(Cl)c3)c2cc1NC(=O)/C=C/[C@H]1CCCN1C` [Compound A, (E)-N-[4-[[3-chloro-4-(2-pyridylmethoxy)phenyl]amino]-3-cyano-7-ethoxy-6-quinolyl]-3-[(2R)-1-methylpyrrolidin-2-yl]prop-2-enamide]: at EGFR WT, the “inhibitory effect on the enzymatic activity of recombinant human wild type EGFR and the mutated type with inserted mutation in exon 20 (in words)” value was “strong inhibitory effect”.
`CN(C)C/C=C/C(=O)Nc1cc2c(Nc3ccc(F)c(Cl)c3)ncnc2cc1O[C@H]1CCOC1` [SHR141219 (BIBW-2992)]: the “ORR evaluated through IRC” value in assay [1] (23 patients with Exon 20 ins, 95% CI: 1.1%-28%) is 8.7%. For the same molecule, in assay [1] (patients with Exon 20 ins, 95% CI: 1.8-4.2 months), the “median PFS” value is listed as 2.7 months. In addition, the “median OS” value in assay [1] (patients with Exon 20 ins, 95% CI: 4.1-14.2 months) is listed as 9.2 months.
As for `C#Cc1cccc(Nc2ncnc3cc(OCCOC)c(OCCOC)cc23)c1` [erlotinib], in assay [2] (3 of the 11 patients with Exon 20 ins), the “partial remission (PR) rate” value was 27%. In addition, the “median TTP” value in assay [2] (patients with Exon 20 ins who received erlotinib) is 3 months.

The record behind these values is patent US20190224189A1 (priority 2016, published 2019).
